ChEMBL document CHEMBL5038584, “Dual-Targeting Antiproliferation Hybrids Derived from 1-Deoxynojirimycin and Kaempferol Induce MCF-7 Cell Apoptosis through the Mitochondria-Mediated Pathway” (J Nat Prod, 2021)
The source made the active and inactive calls. The rule behind the calls is not given here.

Legend:
[1] = Lipophilicity, logP of compound by shake flask method; type: physicochemical; settings: octanol/water
MCF7 [2] = test: Cytotoxicity against human MCF7 cells measured after 48 hrs by MTT assay; type: functional, cell-based; settings: MCF7, 48 h
HCC1937 = test: Cytotoxicity against human HCC1937 cells measured after 48 hrs by MTT assay; type: functional, cell-based; settings: HCC1937, 48 h
HepG2 = test: Cytotoxicity against human HepG2 cells measured after 48 hrs by MTT assay; type: functional, cell-based; settings: HepG2, 48 h
HCT-116 = test: Cytotoxicity against human HCT-116 cells measured after 48 hrs by MTT assay; type: functional, cell-based; settings: HCT-116, 48 h
BGC-823 = test: Cytotoxicity against human BGC-823 cells measured after 48 hrs by MTT assay; type: functional, cell-based; settings: BGC-823, 48 h
A549 = test: Cytotoxicity against human A549 cells measured after 48 hrs by MTT assay; type: functional, cell-based; settings: A549, 48 h
MCF7 [3] = test: Anticlonogenic activity against human MCF7 cells assessed as inhibition of colony formation at 5 to 10 uM measured after 48 hrs by crystal violet staining based colony forming assay; type: functional, cell-based; settings: dose 5-10 µM
MCF7 [4] = test: Antimigratory activity against human MCF7 cells at 5 uM after 24 hrs by inverted fluorescence microscope analysis relative to control (reference value: 82.9%); type: functional
MCF7 [5] = test: Antimigratory activity against human MCF7 cells at 10 uM after 24 hrs by inverted fluorescence microscope analysis relative to control (reference value: 82.9%).; type: functional
MCF7 [6] = test: Cell cycle arrest in human MCF7 cells assessed as accumulation of cells at G1 phase at 10 uM measured after 24 hrs by PI staining based flow cytometry assay (reference value: 59.45%); type: functional
MCF7 [7] = test: Cell cycle arrest in human MCF7 cells assessed as accumulation of cells at S phase at 10 uM measured after 24 hrs by PI staining based flow cytometry assay (reference value: 25.64%); type: functional
MCF7 [8] = test: Cell cycle arrest in human MCF7 cells assessed as accumulation of cells at G2 phase at 10 uM measured after 24 hrs by PI staining based flow cytometry assay (reference value: 14.91%); type: functional
MCF7 [9] = test: Cell cycle arrest in human MCF7 cells assessed as accumulation of cells at G1 phase at 20 uM measured after 24 hrs by PI staining based flow cytometry assay (reference value: 59.45%); type: functional
MCF7 [10] = test: Cell cycle arrest in human MCF7 cells assessed as accumulation of cells at S phase at 20 uM measured after 24 hrs by PI staining based flow cytometry assay (reference value: 25.64%); type: functional
MCF7 [11] = test: Cell cycle arrest in human MCF7 cells assessed as accumulation of cells at G2 phase at 20 uM measured after 24 hrs by PI staining based flow cytometry assay (reference value: 14.91%); type: functional
MCF7 [12] = test: Induction of apoptosis in human MCF7 cells assessed as cell shrinkage at 20 uM measured after 24 hrs by Hoechst 33342 staining based flourescence microscopy method; type: functional
MCF7 [13] = test: Induction of apoptosis in human MCF7 cells assessed as nuclear changes at 20 uM measured after 24 hrs by Hoechst 33342 staining based flourescence microscopy method; type: functional, cell-based
MCF7 [14] = test: Induction of apoptosis in human MCF7 cells assessed as viable cells at 10 uM measured after 24 hrs by AnnexinV/[…]-PI staining based flow cytometry method (Rvb =97 %); type: functional; settings: read-out: Activity
MCF7 [15] = test: Induction of apoptosis in human MCF7 cells assessed as early apoptotic cells at 10 uM measured after 24 hrs by AnnexinV/[…]-PI staining based flow cytometry method (Rvb =0.466 %); type: functional
MCF7 [16] = test: Induction of apoptosis in human MCF7 cells assessed as late apoptotic cells at 10 uM measured after 24 hrs by AnnexinV/[…]-PI staining based flow cytometry method (Rvb =1.28 %); type: functional
MCF7 [17] = test: Induction of apoptosis in human MCF7 cells assessed as necrotic cells at 10 uM measured after 24 hrs by AnnexinV/[…]-PI staining based flow cytometry method (Rvb =1.28 %); type: functional
MCF7 [18] = test: Induction of apoptosis in human MCF7 cells assessed as viable cells at 20 uM measured after 24 hrs by AnnexinV/[…]-PI staining based flow cytometry method (Rvb =97 %); type: functional; settings: read-out: Activity
MCF7 [19] = test: Induction of apoptosis in human MCF7 cells assessed as early apoptotic cells at 20 uM measured after 24 hrs by AnnexinV/[…]-PI staining based flow cytometry method (Rvb =0.466 %); type: functional
MCF7 [20] = test: Induction of apoptosis in human MCF7 cells assessed as late apoptotic cells at 20 uM measured after 24 hrs by AnnexinV/[…]-PI staining based flow cytometry method (Rvb =1.28 %); type: functional
MCF7 [21] = test: Induction of apoptosis in human MCF7 cells assessed as necrotic cells at 20 uM measured after 24 hrs by AnnexinV/[…]-PI staining based flow cytometry method (Rvb =1.28 %); type: functional
MCF7 [22] = test: Induction of mitochondrial membrane potential loss in human MCF7 cells at 5 to 10 uM measured after 24 hrs by JC-1 staining based flourescence microscopy method; type: functional, cell-based; settings: dose 5-10 µM
MCF7 [23] = test: Induction of apoptosis in human MCF7 cells assessed as increase in intracellular ROS levels at 10 uM measured after 24 hrs by DCFH-DA staining based flow cytometry method; type: functional, cell-based
MCF7 [24] = test: Induction of intracellular calcium level in human MCF7 cells at 5 to 10 uM measured after 24 hrs by Fluo-4AM staining based flourescence microscopy method; type: functional, cell-based; settings: dose 5-10 µM
MCF7 [25] = test: Induction of apoptosis in human MCF7 cells assessed as decrease of COX-2 protein level at 10 uM measured after 24 hrs by Western blot assay; type: functional, cell-based
MCF7 [26] = test: Induction of apoptosis in human MCF7 cells assessed as decrease of Bcl2 protein level at 10 uM measured after 24 hrs by Western blot assay; type: functional, cell-based
MCF7 [27] = test: Induction of apoptosis in human MCF7 cells assessed as increase of Bax protein level at 10 uM measured after 24 hrs by Western blot assay; type: functional, cell-based
MCF7 [28] = test: Induction of apoptosis in human MCF7 cells assessed as increase of Bax/Bcl2 ratio at 10 uM measured after 24 hrs by Western blot assay; type: functional, cell-based
MCF7 [29] = test: Induction of apoptosis in human MCF7 cells at 10 uM measured after 24 hrs by AnnexinV/[…]-PI staining based flow cytometry method; type: functional
MCF7 [30] = test: Induction of apoptosis in human MCF7 cells at 20 uM measured after 24 hrs by AnnexinV/[…]-PI staining based flow cytometry method; type: functional

logP [1] | SMILES | IC50 (MCF7 [2]) | IC50 (HCC1937) | IC50 (HepG2) | IC50 (HCT-116) | IC50 (BGC-823) | IC50 (A549) | Activity (MCF7 [5]) | Activity (MCF7 [9]) | Activity (MCF7 [10]) | Activity (MCF7 [11]) | viability at 20 µM (MCF7 [18]) | Activity (MCF7 [19]) | Activity (MCF7 [20]) | Activity (MCF7 [21]) | Activity (MCF7 [25]) | also measured
2.92 | COc1ccc(-c2oc3cc(OC)cc(OC)c3c(=O)c2OCCCCCCCCCCCN2C[C@H](O)[C@@H](O)[C@H](O)[C@H]2CO)cc1 | 3.6 µM | 7.1 µM | 7.7 µM | 7.8 µM | 4.5 µM | 5.1 µM | 46% | 42.64% | 56.48% | 0.87% | 27.3% | 37.9% | 29.9% | 4.83% | Active | Activity (MCF7 [3]): Active; Activity (MCF7 [4]): 56.5%; Activity (MCF7 [6]): 55.3%; Activity (MCF7 [7]): 26.6%; Activity (MCF7 [8]): 18.07%; Activity (MCF7 [12]): Active; Activity (MCF7 [13]): Active; viability at 10 µM (MCF7 [14]): 89.5%; Activity (MCF7 [15]): 0.508%; Activity (MCF7 [16]): 5.97%; Activity (MCF7 [17]): 4.03%; Activity (MCF7 [22]): Active; Activity (MCF7 [23]): Active; Activity (MCF7 [24]): Dose-Dependent Effect; Activity (MCF7 [26]): Active; Activity (MCF7 [27]): Active; Activity (MCF7 [28]): Active; Activity (MCF7 [29]): 6.48%; Activity (MCF7 [30]): 67.8%
-0.68 | OC[C@H]1NC[C@H](O)[C@@H](O)[C@@H]1O [DUVOGLUSTAT] | > 10 µM | > 10 µM | > 10 µM | > 10 µM | > 10 µM | > 10 µM | 78.4% | 49.59% | 31.41% | 19% | 96.6% | 0.409% | 1.75% | 1.19% | – | –
1.65 | COc1ccc(-c2oc3cc(OC)cc(OC)c3c(=O)c2OCCCCCCCCN2C[C@H](O)[C@@H](O)[C@H](O)[C@H]2CO)cc1 | > 10 µM | > 10 µM | > 10 µM | 8.8 µM | > 10 µM | 7.6 µM | – | – | – | – | – | – | – | – | – | –
– | O=c1c(O)c(-c2ccc(O)cc2)oc2cc(O)cc(O)c12 [KAEMPFEROL] | > 10 µM | > 10 µM | > 10 µM | > 10 µM | > 10 µM | > 10 µM | 79.9% | 53.49% | 29.49% | 7.02% | 95.4% | 0.556% | 2.43% | 1.61% | Active | –
0.49 | COc1ccc(-c2oc3cc(OC)cc(OC)c3c(=O)c2OCCCCCN2C[C@H](O)[C@@H](O)[C@H](O)[C@H]2CO)cc1 | > 10 µM | > 10 µM | > 10 µM | > 10 µM | > 10 µM | > 10 µM | – | – | – | – | – | – | – | – | – | –
